Experiments:
Male SD rats = test: Hypoglycemic action in rats (oral glucose tolerance test); format: in vivo; conditions: Rattus norvegicus, 0.5 h, male SD rats fasted overnight, glucose load 2 g/kg 60 min later, blood drawn 30 min after starting glucose loading, read-out: glucose level (% of control); for response vs control in vivo at 30 mg/kg: 30 mg/kg body weight oral; for response vs control in vivo at 50 mg/kg: 50 mg/kg body weight oral
Description: Hypoglycemic Action in Rats
Male SD rats (7 weeks of age, 5 per group) were fasted overnight and blood was drawn from the tail vein to measure the glucose level before administration of the test compound. Then the test compound (30 mg/kg body weight/10 mL (compounds of Examples 8, 16, 66, 68, 79, 94, 123) or 50 mg/kg body weight/10 mL (compounds of Examples 58, 70)) suspended in 0.5% methyl cellulose was orally administered to the rats using a gastric tube. Oral glucose tolerance test (2 g/kg body weight/10 mL) was started 60 min later. Blood was drawn at 30 min after starting the glucose loading, and glucose level was measured. The glucose level was measured using an automatic analyzer (HITACHI 7070).

[1] = test system: pancreatic Langerhans' islet of rats; test: Insulin secretion promoting action in pancreatic Langerhans' islet of rats; format: cell-based, rat; conditions: test compound 100 μmol/L, 7.5 mmol/L glucose, 1 hr incubation; insulin secretion amount relative to control group, amended by DNA amount
Description: Insulin Secretion Promoting Action in Pancreatic Langerhans' Islet of Rats
The pancreas of 8-week-old male SD rat was treated with collagenase and the isolated Langerhans' islet was preincubated for 1 hr in a medium (KRB) containing 2.8 mmol/L glucose in a 24 well incubation plate, which was followed by incubation for 1 hr in KRB containing the test compound (100 μmol/L, see Table 2) and 7.5 mmol/L glucose (control group was free of test compound). The medium was recovered and the amount of the secreted insulin was measured using a radioimmunoassay kit (trademark: SHIONORIA insulin kit (manufactured by Shionogi & Co., Ltd.)). The Langerhans' islet was lysed by ultrasonication and the DNA amount was measured, based on which the insulin level in the medium was amended. The insulin secretion amount of the test compound group is expressed in a value (%) relative to the control group and shown in Table 2.

| Structure (SMILES) | response vs control in vivo at 30 mg/kg (Male SD rats) [%] | insulin secretion promoting action (%) [1] [%] | response vs control in vivo at 50 mg/kg (Male SD rats) [%] | melting point [°C] |
| --- | --- | --- | --- | --- |
| O=C(O)CCc1cnoc1-c1ccc(Cl)cc1 [Example 8, 3-[5-(4-chlorophenyl)-4-isoxazolyl]propionic acid] | 85 | 256 |  |  |
| OCCCc1cnoc1-c1ccc(Cl)cc1 [Example 16, 3-[5-(4-chlorophenyl)-4-isoxazolyl]propan-1-ol] | 88 |  |  |  |
| OCCCc1cnoc1-c1ccc(F)cc1 [Example 58, 3-[5-(4-fluorophenyl)-4-isoxazolyl]propan-1-ol] |  |  | 85 |  |
| O=C(O)CCc1cnoc1-c1ccc(Cl)s1 [Example 64, 3-[5-(5-chloro-2-thienyl)-4-isoxazolyl]propionic acid] |  | 273 |  | 138 to 139 |
| OCCCc1cnoc1-c1ccc(Cl)s1 [Example 66, 3-[5-(5-chloro-2-thienyl)-4-isoxazolyl]propan-1-ol] | 80 |  |  |  |
| OCCCc1cnoc1-c1ccc(Cl)c(Cl)c1 [Example 68, 3-[5-(3,4-dichlorophenyl)-4-isoxazolyl]propan-1-ol] | 75 |  |  |  |
| O=C(O)CCc1cnoc1-c1ccc(Cl)c(Cl)c1 [Example 70, 3-[5-(3,4-dichlorophenyl)-4-isoxazolyl]propionic acid] |  | 235 | 88 | 171 to 172 |
| O=C(O)CCc1cnoc1-c1ccc(F)c(F)c1 [Example 77, 3-[5-(3,4-difluorophenyl)-4-isoxazolyl]propionic acid] |  | 201 |  | 102 to 103 |
| OCCCc1cnoc1-c1ccc(F)c(F)c1 [Example 79, 3-[5-(3,4-difluorophenyl)-4-isoxazolyl]propan-1-ol] | 77 |  |  |  |
| O=C(O)CCc1cnoc1-c1ccc(F)c(Cl)c1 [Example 92, 3-[5-(3-chloro-4-fluorophenyl)-4-isoxazolyl]propionic acid] |  | 156 |  | 118 to 119 |
| OCCCc1cnoc1-c1ccc(F)c(Cl)c1 [Example 94, 3-[5-(3-chloro-4-fluorophenyl)-4-isoxazolyl]propan-1-ol] | 81 |  |  |  |
| O=C(O)CCc1cnoc1-c1cc(Cl)c(Cl)s1 [Example 123, 3-[5-(4,5-dichloro-2-thienyl)-4-isoxazolyl]propionic acid] | 86 |  |  | 142 to 143 |
